Target: T1, Type-1 angiotensin II receptor (Homo sapiens, UniProt P30556)
T1 sequence (P30556 whole entry): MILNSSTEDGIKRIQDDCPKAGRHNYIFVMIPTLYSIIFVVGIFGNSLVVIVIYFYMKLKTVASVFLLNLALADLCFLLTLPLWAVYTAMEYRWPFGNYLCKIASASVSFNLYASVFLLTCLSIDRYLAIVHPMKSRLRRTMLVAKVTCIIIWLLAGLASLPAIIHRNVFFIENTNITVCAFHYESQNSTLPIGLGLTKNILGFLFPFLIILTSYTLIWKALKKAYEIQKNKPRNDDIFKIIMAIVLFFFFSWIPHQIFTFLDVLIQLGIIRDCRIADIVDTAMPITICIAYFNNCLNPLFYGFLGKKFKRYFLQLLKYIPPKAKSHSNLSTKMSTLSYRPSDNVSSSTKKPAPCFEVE
Assay: Compound was tested in vitro for inhibitory activity against human Angiotensin II receptor in cultured preadipocytes
Assay type: cell-based

IC50 [nM]	SMILES
44	Cc1nc(C(=O)O)c2c(n1)N(Cc1ccc(-c3ccccc3-c3nnn[nH]3)cc1)C(=O)CC2
44	O=c1ccc2c(CO)nc(CO)nc2n1Cc1ccc(-c2ccccc2-c2nn[nH]n2)cc1
23	Cc1nc(C(=O)O)nc2c1CCC(=O)N2Cc1ccc(-c2ccccc2-c2nnn[nH]2)cc1
38	Cc1nc(C)c2c(n1)N(Cc1ccc(-c3ccccc3-c3nnn[nH]3)cc1)C(=O)CC2 [TASOSARTAN]
